The test system of the assay is Plasmopara viticola. As to the kind of experiment: Activity against downy mildew of grapes caused by Plasmopara viticola (lasting effect, inoculation 7 days after spraying). It is filed as in vivo. The conditions noted are these: 63 ppm active compound; potted vines Müller-Thurgau; inoculated 7 days after spraying; untreated plants 90% infected. Here is the method:
The active compounds were prepared, separately or together, as a 10% emulsion in a mixture of 70% by weight of cyclohexanone, 20% by weight of Nekanil® LN (Lutensol® AP6, wetting agent with an emulsifying and dispersing action based on ethoxylated alkylphenols) and 10% by weight of Wettol® EM (nonionic emulsifier based on ethoxylated castor oil) and were appropriately diluted with water to the desired concentration.
Leaves of potted vines of the variety “Müller-Thurgau” were sprayed to runoff point with an aqueous preparation of active compound prepared from a stock solution consisting of 10% of active compound, 85% of cyclohexanone and 5% of emulsifier. In order to be able to assess the lasting effects of the substances, the plants, after the spray coating had dried on, were placed in a greenhouse for 7 days. Only then were the leaves inoculated with an aqueous suspension of zoospores of Plasmopara viticola. The vines were then initially placed in a chamber saturated with water vapor at 24° C. for 48 hours and subsequently in a greenhouse at temperatures of between 20 and 30° C. for 5 days. After this period of time, the plants were once more placed in a humid chamber for 16 hours to accelerate the eruption of sporangiphores. The extent to which the infection had developed on the undersides of the leaves was then determined visually.

`CC/C=C(/C(=O)NCCc1ccc(OCC)c(OC)c1)c1ccc(Cl)c(Cl)c1` [compound A] returned an infection of 40%.
To `CCC=C(C(=O)NCCc1ccc(OCC)c(OC)c1)c1ccc(Cl)c(Cl)c1` [Compound I-44] belongs 3%.

(Values after patent US7186861B2 (priority 2002, dated 2007).)
